Patent US20140171316A1, “ANTHRANILAMIDE COMPOUNDS AND THEIR USE AS PESTICIDES” (BASF SE, priority 2011, published 2014)

Experiments:
Format in all cases: in vivo
Heliothis virescens = test: Tobacco budworm (Heliothis virescens) microtiter plate insect diet test; conditions: 120 h, sprayed onto insect diet, 5 days, read-out: mortality in comparison with untreated controls (egg and larval mortality)
Method: For evaluating control of tobacco budworm (Heliothis virescens) the test unit consisted of 96-well-microtiter plates containing an insect diet and 15-25 H. virescens eggs.
The compounds were formulated using a solution containing 75% v/v water and 25% v/v DMSO. Different concentrations of formulated compounds were sprayed onto the insect diet at 10 μl, using a custom built micro atomizer, at two replications.
(§1) After application, microtiter plates were incubated at about 28±1° C. and about 80±5% relative humidity for 5 days. Egg and larval mortality was then visually assessed.

Ceratitis capitata = test: Mediterranean fruitfly (Ceratitis capitata) microtiter plate insect diet test; conditions: 120 h, sprayed onto insect diet, 5 days, read-out: mortality in comparison with untreated controls (egg and larval mortality)
Method: For evaluating control of Mediterranean fruitfly (Ceratitis capitata) the test unit consisted of microtiter plates containing an insect diet and 50-80 C. capitata eggs.
The compounds were formulated using a solution containing 75% v/v water and 25% v/v DMSO. Different concentrations of formulated compounds were sprayed onto the insect diet at 5 μl, using a custom built micro atomizer, at two replications.
as §1

Myzus persicae = test: Green peach aphid (Myzus persicae) spray test on bell pepper plants; conditions: 120 h, sprayed infested bell pepper plants, after 5 days, read-out: mortality in comparison with untreated controls
Description: The active compounds were formulated in cyclohexanone as a 10,000 ppm solution supplied in tubes. The tubes were inserted into an automated electrostatic sprayer equipped with an atomizing nozzle and they served as stock solutions for which lower dilutions were made in 50% acetone:50% water (v/v). A nonionic surfactant (Kinetic®) was included in the solution at a volume of 0.01% (v/v).
Bell pepper plants at the first true-leaf stage were infested prior to treatment by placing heavily infested leaves from the main colony on top of the treatment plants. Aphids were allowed to transfer overnight to accomplish an infestation of 30-50 aphids per plant and the host leaves were removed. The infested plants were then sprayed by an automated electrostatic plant sprayer equipped with an atomizing spray nozzle. The plants were dried in the sprayer fume hood, removed, and then maintained in a growth room under fluorescent lighting in a 24-hr photoperiod at about 25° C. and about 20-40% relative humidity. Aphid mortality on the treated plants, relative to mortality on untreated control plants, was determined after 5 days.

Anthonomus grandis = test: Boll weevil (Anthonomus grandis) microtiter plate insect diet test; conditions: 120 h, sprayed onto insect diet, 5 days, read-out: mortality in comparison with untreated controls (egg and larval mortality)
Method: For evaluating control of boll weevil (Anthonomus grandis) the test unit consisted of 24-well-microtiter plates containing an insect diet and 20-30 A. grandis eggs.
The compounds were formulated using a solution containing 75% v/v water and 25% v/v DMSO. Different concentrations of formulated compounds were sprayed onto the insect diet at 20 μl, using a custom built micro atomizer, at two replications.
After application, microtiter plates were incubated at about 23±1° C. and about 50±5% relative humidity for 5 days. Egg and larval mortality was then visually assessed.

Aphis craccivora = test: Cowpea aphid (Aphis craccivora) spray test on potted cowpea plants; conditions: sprayed cowpea plants, assessed after 72 hours, read-out: mortality in comparison with untreated controls
Method: The active compound was dissolved at the desired concentration in a mixture of 1:1 (vol:vol) distilled water:acetone. Surfactant (Alkamuls® EL 620) is added at a rate of 0.1% (vol/vol). The test solution was prepared at the day of use.
Potted cowpea plants were colonized with approximately 50-100 aphids of various stages by manually transferring a leaf tissue cut from infested plant 24 hours before application. Plants were sprayed after the pest population has been recorded. Treated plants were maintained on light carts at about 28° C. Percent mortality was assessed after 72 hours.

Megoura viciae = test: Vetch aphid (Megoura viciae) broad bean leaf disk test; conditions: foliar, 120 h, sprayed broad bean leaf disks, adult aphids, 5 days, read-out: mortality in comparison with untreated controls
Method: For evaluating control of vetch aphid (Megoura viciae) through contact or systemic means the test unit consisted of 24-well-microtiter plates containing broad bean leaf disks.
The compounds were formulated using a solution containing 75% v/v water and 25% v/v DMSO. Different concentrations of formulated compounds were sprayed onto the leaf disks at 2.5 μl, using a custom built micro atomizer, at two replications.
After application, the leaf disks were air-dried and 5-8 adult aphids placed on the leaf disks inside the microtiter plate wells. The aphids were then allowed to suck on the treated leaf disks and incubated at about 23±1° C. and about 50±5% relative humidity for 5 days. Aphid mortality and fecundity was then visually assessed.

Dichromothrips corbetti = test: Orchid thrips (Dichromothrips corbetti) floral-immersion test; conditions: dipped orchid flowers, adult thrips, 72 hours after treatment, read-out: mortality in comparison with untreated controls
Method: Dichromothrips corbetti adults used for bioassay were obtained from a colony maintained continuously under laboratory conditions. For testing purposes, the test compound was diluted in a 1:1 mixture of acetone:water (vol:vol), plus 0.01% vol/vol Alkamuls® EL 620 surfactant.
Thrips potency of each compound was evaluated by using a floral-immersion technique. Plastic petri dishes were used as test arenas. All petals of individual, intact orchid flowers were dipped into treatment solution and allowed to dry. Treated flowers were placed into individual petri dishes along with about 20 adult thrips. The petri dishes were then covered with lids. All test arenas were held under continuous light and a temperature of about 28° C. for duration of the assay. After 3 days, the numbers of live thrips were counted on each flower, and along inner walls of each petri dish. The percent mortality was recorded 72 hours after treatment.

CNC(=O)c1cc(/C=N/OC)cc(C)c1NC(=O)c1cnn(CC(F)(F)F)c1-c1ncccc1Cl [Compound 1-1, 5-(3-chloro-2-pyridyl)-N-[4-[(E)-methoxyiminomethyl]-2-methyl-6-(methylcarbamoyl)phenyl]-1-(2,2,2-trifluoroethyl)pyrazole-4-carboxamide]
> 75%: mortality at 2500 ppm (Heliothis virescens) | mortality at 2500 ppm (Ceratitis capitata) | mortality at 2500 ppm (Myzus persicae) | mortality at 2500 ppm (Anthonomus grandis) | mortality at 500 ppm (Aphis craccivora) | mortality at 2500 ppm (Megoura viciae) | mortality at 500 ppm (Dichromothrips corbetti)

CNC(=O)c1cc(-n2cncn2)cc(C)c1NC(=O)c1cnn(CC(F)(F)F)c1-c1ncccc1Cl [Compound 1-2, 5-(3-chloro-2-pyridyl)-N-[2-methyl-6-(methylcarbamoyl)-4-(1,2,4-triazol-1-yl)phenyl]-1-(2,2,2-trifluoroethyl)pyrazole-4-carboxamide]
> 75%: mortality at 2500 ppm (Heliothis virescens) | mortality at 2500 ppm (Ceratitis capitata) | mortality at 2500 ppm (Myzus persicae) | mortality at 2500 ppm (Anthonomus grandis) | mortality at 500 ppm (Aphis craccivora) | mortality at 2500 ppm (Megoura viciae) | mortality at 500 ppm (Dichromothrips corbetti)
